Laboratory results reported in US6723747B2, “Substituted 6H-DiBenzo[c,h]chromenes as estrogenic agents” (Wyeth, priority 2001, dated 2004).

Experiments:
[1] = system: progesterone receptor mRNA in the preoptic area of the rat brain; test: Progesterone receptor mRNA regulation test procedure; assay type: in vivo; details: 10 mg/kg, vehicle 189.2 ± 27.2
Text: This test procedure can be used to evaluate the estrogenic or antiestrogenic activity of compounds from this invention [Shughrue, et al., Endocrinology 138: 5476-5484 (1997)].

HLA-B27 rats = test: HLA-B27 rat model of arthritis; assay type: in vivo; details: 10 mg/kg orally once daily, Study 2
Text: The degree of arthritis severity is monitored daily in terms of the following disease indices: Hindpaw erythema, hindpaw swelling, tenderness of the joints, and movements and posture. An integer scale of 0 to 3 is used to quantify the level of erythema (0=normal paw, 1=mild erythema, 2=moderate erythema, 3=severe erythema) and swelling (0=normal paw, 1=mild swelling, 2=moderate swelling, 3=severe swelling of the hind paw). The maximal score per day is 12.
Evaluation in the HLA-B27 Rat model of arthritis. Representative compounds of the invention were evaluated in the HLA-B27 rat standard pharmacological test procedure which emulates arthritis in humans. The following briefly describes the procedure used and results obtained. Male HLA-B27 rats (8-10 weeks old) were obtained from Taconic and provided unrestricted access to a food (PMI Lab diet 5001) and water. Rats were dosed orally once daily with either vehicle (2% tween-80/0.5% methylcellulose) or test compound (10 mg/kg) for 26 days. Joint scores and histology are evaluated as described above for the Lewis rat model of adjuvant-induced arthritis.

Lewis rats = test: Lewis rat adjuvant-induced arthritis, inhibition test procedure; assay type: in vivo; details: 10 mg/kg sc daily from Day 1
human ERα = biological target: T1, human ERα (Homo sapiens, UniProt P03372); test: Radioligand binding competition with [3H]-17β-estradiol, ERα; details: human ERα ligand binding domain, read-out: ER-α IC50
T1 construct: amino acids M250-V595 of human ERα; His (N); made in house; host or cells: E. coli BL21(DE3), clarified lysate
T1 sequence (P03372 250-595): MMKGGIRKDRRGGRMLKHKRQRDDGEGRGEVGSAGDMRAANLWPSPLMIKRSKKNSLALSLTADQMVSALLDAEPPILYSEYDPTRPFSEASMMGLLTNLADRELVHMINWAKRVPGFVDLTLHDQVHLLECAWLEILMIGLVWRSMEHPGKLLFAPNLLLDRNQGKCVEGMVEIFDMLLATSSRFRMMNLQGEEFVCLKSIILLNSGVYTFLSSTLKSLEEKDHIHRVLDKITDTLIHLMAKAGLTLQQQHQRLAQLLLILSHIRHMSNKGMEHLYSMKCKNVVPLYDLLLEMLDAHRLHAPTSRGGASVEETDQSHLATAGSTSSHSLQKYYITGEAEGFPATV

## N#Cc1cc2c(c3ccc(O)cc13)OCc1cc(O)ccc1-2 [Example 1d, 2,8-Dihydroxy-6H-dibenzo[c,h]chromene-12-carbonitrile]
[1]
  Progesterone receptor mRNA (mean ± stdev): 403.9 ± 19.1 arbitrary units
HLA-B27 rats; day 1, vehicle 0
  joint inflammation score: 0
HLA-B27 rats; day 2, vehicle 0
  joint inflammation score: 0
HLA-B27 rats; day 3, vehicle 0
  joint inflammation score: 0
HLA-B27 rats; day 4, vehicle 0
  joint inflammation score: 0
HLA-B27 rats; day 5, vehicle 0
  joint inflammation score: 0
HLA-B27 rats; day 6, vehicle 0
  joint inflammation score: 0
HLA-B27 rats; day 7, vehicle 0
  joint inflammation score: 0
HLA-B27 rats; day 8, vehicle 2.5
  joint inflammation score: 2
HLA-B27 rats; day 9, vehicle 3.75
  joint inflammation score: 1.25
HLA-B27 rats; day 10, vehicle 2.75
  joint inflammation score: 1
HLA-B27 rats; day 11, vehicle 3.5
  joint inflammation score: 0
HLA-B27 rats; day 12, vehicle 1.25
  joint inflammation score: 0.5
HLA-B27 rats; day 13, vehicle 1.25
  joint inflammation score: 0.25
HLA-B27 rats; day 14, vehicle 1.25
  joint inflammation score: 0
HLA-B27 rats; day 15, vehicle 5.25
  joint inflammation score: 0.25
HLA-B27 rats; day 16, vehicle 4.5
  joint inflammation score: 1
HLA-B27 rats; day 17, vehicle 3.5
  joint inflammation score: 1
HLA-B27 rats; day 18, vehicle 3.75
  joint inflammation score: 0.5
HLA-B27 rats; day 19, vehicle 5.5
  joint inflammation score: 0.75
HLA-B27 rats; day 22, vehicle 3.25
  joint inflammation score: 0.25
HLA-B27 rats; day 23, vehicle 6.5
  joint inflammation score: 2
HLA-B27 rats; day 24, vehicle 6.5
  joint inflammation score: 2
HLA-B27 rats; day 25, vehicle 6.25
  joint inflammation score: 2
HLA-B27 rats; day 26, vehicle 7
  joint inflammation score: 1.75
Lewis rats; day 1, vehicle 0.00
  joint inflammation score (maximal score per day 12): 0.00
Lewis rats; day 2, vehicle 0.00
  joint inflammation score (maximal score per day 12): 0.00
Lewis rats; day 3, vehicle 4.50
  joint inflammation score (maximal score per day 12): 2.66
Lewis rats; day 4, vehicle 5.50
  joint inflammation score (maximal score per day 12): 1.83
Lewis rats; day 5, vehicle 9.33
  joint inflammation score (maximal score per day 12): 2.66
Lewis rats; day 6, vehicle 10.50
  joint inflammation score (maximal score per day 12): 2.16
Lewis rats; day 7, vehicle 10.60
  joint inflammation score (maximal score per day 12): 2.00
Lewis rats; day 8, vehicle 11.00
  joint inflammation score (maximal score per day 12): 1.66
Lewis rats; day 9, vehicle 11.50
  joint inflammation score (maximal score per day 12): 2.00
Lewis rats; day 10, vehicle 11.33
  joint inflammation score (maximal score per day 12): 2.00
Lewis rats; day 11, vehicle 10.83
  joint inflammation score (maximal score per day 12): 1.66
Lewis rats; day 12, vehicle 10.83
  joint inflammation score (maximal score per day 12): 1.66
Lewis rats; day 13, vehicle 11.00
  joint inflammation score (maximal score per day 12): 2.16
Lewis rats; day 14, vehicle 11.00
  joint inflammation score (maximal score per day 12): 2.00
Lewis rats; day 15, vehicle 11.00
  joint inflammation score (maximal score per day 12): 2.00
Lewis rats; day 16, vehicle 11.00
  joint inflammation score (maximal score per day 12): 1.00
Lewis rats; day 17, vehicle 10.50
  joint inflammation score (maximal score per day 12): 1.33
Human ERα
  IC50: 107 nM
